Assay results as given in patent publication US12709733B2, “Cell culture media” (Merck Patent GmbH, priority 2019, dated 2026).
In brackets after ≈: the same amount, converted by molar mass. Each block holds one compound with its values, some of them ahead of it.

How the values were obtained:
[1] = Maximum solubility in Cellvento 4Feed depleted in Ile and Leu (turbidity measurement); format: physicochemical; details: for solubility at 10 min: aqueous with cosolvent or surfactant or cyclodextrin, thermodynamic from solid, pH 7.0+/-0.2, 25° C., soluble = turbidity below 5 NTU; for solubility at 10 min / times more soluble than the native amino acid in Cellvento 4Feed depleted in Ile/Leu: 113 g/L feed; for times more soluble than the native amino acid in Cellvento 4Feed depleted in Ile/Leu: pH 7.0+/-0.2
Procedure: Increasing amounts of the Lac-Leu and Lac-Ile and salts thereof were added to a cell culture feed formulation (Cellvento® 4Feed) depleted in Ile and Leu. Similarly, increasing amounts of Ile and Leu were added to the same feed formulation as a control. The total concentration of this feed formulation was 113 g/L and the pH was 7.0+/−0.2. In small scale experiments, after each addition of either the amino acid or the Lac-AA, the feed was agitated for 10 mins and turbidity was measured. The experiments were performed at room temperature (25° C.).
A solution having a turbidity below 5 NTU is considered soluble.

[2] = Maximum solubility in water at 25° C. (saturated solution, residual mass after infrared drying); format: physicochemical; details: for solubility / Solubility 25° C. in g/kg (amino acid) / increase in solubility compared to the respective amino acid / Solubility 25° C. in g/kg (corresponding Lac-AA): 25° C.; for solubility: stated in description; for Solubility 25° C. in g/kg (amino acid) / increase in solubility compared to the respective amino acid / Solubility 25° C. in g/kg (corresponding Lac-AA): water; for Solubility 25° C. in g/kg (amino acid): native amino acid; for Solubility 25° C. in g/kg (corresponding Lac-AA): Lac-AA sodium salt; for maximum solubilities obtained in water: separate experiments comparing Leu, Leu sodium salt and lac-Leu sodium salt
Procedure: After sedimentation, the solution was dried using infrared (120° C., 120 min) and the residual mass was determined in g/kg.

[3] = test system: CHODG44 clone producing an IgG1; test: Fed-batch experiments with a CHODG44 clone; format: cell-based
Description: Results (FIG. 16, 17, 18) indicate a similar VCD and IgG titer for the Lac-Leu and Lac-Ile conditions compared to the control positive control. […] The explanation for this difference in behavior between CHOK1GS cells and this DG44 cell line is currently unknown. The Leu and Ile concentrations in the spent media (FIG. 19 and) decreased during the first day of the FB culture to finally increase again after D7. This behavior is similar to the behavior seen for CHOK1GS cells and indicate a slow release process of the free AA from the derivatives.

[4] = test system: CHOK1GS suspension cell line expressing a human IgG1; test: Quality of the antibody produced in the fed-batch process (glycosylation, aggregation/fragmentation, charge variants); format: cell-based; details: IgG1 purified from supernatant
Procedure: The quality of the antibody produced in the control fed-batch process (with feed containing Ile and Leu) was compared to the quality of the antibody produced with feed depleted in either Leu and Ile and supplemented with either Lac-Leu or Lac-Ile.
The antibody was purified from the cell culture supernatant using protein A PhyTips® (PhyNexus Inc, San Jose, CA). Glycosylation patterns were analyzed by capillary gel electrophoresis with laser-induced fluorescence (CGE-LIF) after derivatization using the GlykoPrep®-plus Rapid N-Glycan Sample Preparation kit with 8-aminopyrene-1,3,6-trisulfonic acid trisodium (APTS) (Prozyme, Hayward, CA) according to the manufacturer's instructions. […] After a cleaning step to remove the remaining APTS, the relative amounts of glycans were determined using the Pharmaceutical Analysis System CESI8000 Plus (Sciex, Washington, USA) with a LIF detector (Ex: 488 nm, Em: 520 nm). […]
Antibody aggregation and fragmentation were measured using size exclusion chromatography on an Water Acquity UPLC system using a TSKgel SuperSW3000 column (Tosoh Bioscience). […] The sample concentration was adjusted to 1.0 mg/mL after the IgG purification using the storage buffer and the detection was performed using the absorbance at 214 nm. […]

[5] = test system: CHOK1GS suspension cell line expressing a human IgG1; test: Fed-batch cell culture with Lac-AA replacing the amino acid in the feed, CHOK1GS clone; format: cell-based; details: for concentration of Ile in the spent medium / concentration of Leu in the spent medium / effect on viable cell density (VCD) compared to positive control: 17-days fed-batch; for effect on viable cell density (VCD) compared to positive control: Lac-AA replacing amino acid in feed; for IgG titer compared to control: day 14; for increase of free lactate (area under the curve of lactate concentration): supernatant over the fed-batch process
Procedure: For cell culture experiments, a CHOK1GS suspension cell line expressing a human IgG1, was used. Cells were cultivated in quadruplicate in Cellvento® 4CHO medium (Merck Darmstadt, Germany) using 50 mL spin tubes with a starting culture volume of 30 mL and a seeding density of 2×10^5 cells/mL.
Incubation was carried out at 37° C., 5% CO2, 80% humidity and an agitation of 320 rpm. The Lac-AA were added in the Feed (Cellvento® 4Feed depleted in Ile and leu) instead of their respective amino acids. The pH of all the feeds was neutral (pH 7.0+/−0.2). The positive control contained the normal amino acids whereas the negative control contained the feed depleted in the respective amino acid and without addition of Lac-AA. Feeding was carried out at days 3, 5, 7, 10, 12 and 14 at the following v/v ratios (3, 3, 6, 3, 3 and 3%). Glucose was quantified daily and adjusted to 6 g/L using a 400 g/L glucose solution. The experiment was repeated at least 3 times.
The viable cell density (VCD) and viability were evaluated with a Vi-CELL XR (Beckman Coulter, Fullerton, CA). Metabolite concentrations were monitored using a Cedex Bio HT (Roche Diagnostics, Mannheim, Germany) based on spectrophotometric and turbidometric methods. Quantification of amino acids was carried out via UPLC after derivatization with the AccQ·TagUltra® reagent kit. Derivatization, chromatography and data analysis were carried out following the supplier recommendations (Waters, Milford, MA).

[6] = Stability of Lac-AA in Cellvento 4Feed-Ile/Leu by LC-MS; format: physicochemical; details: stored up to 3 months at 4° C. or RT protected from light
Procedure: To monitor the stability of Lac-AA in the complex feed mixture, a targeted quantitative LC-MS method was developed. Serial dilutions of Lac-Leu and Lac-Ile in Cellvento® 4Feed—Ile/Leu pH 7.0 were performed from 100 mM to 100 μM to determine the linearity of the method. A 200-fold dilution in water was performed prior to LC-MS analysis. The method was developed on a UHPLC (Vanquish, Thermo Fisher) coupled with an ESI-Q-ToF mass spectrometer (Impact II, Bruker Daltonics).
Briefly, 1 μL of sample were loaded in 99.9% buffer A (20 mM ammonium formate/0.1% FA) onto a XSelect HSS T3 column (2.1×150 mm, 3.5 μm, Waters) thermostated at 40° C. with a flowrate of 300 μL/min and eluted with a multistep gradient of buffer B (100% methanol) presented in Table 2.
LC-MS analyses were performed using the Impact II mass spectrometer equipped with an ESI source (Bruker Daltonics). MS acquisition was performed in negative mode with end plate offset and capillary voltages set at 500 and 3500 V, respectively. Nebulizer and dry gas (250° C.) were set at 1.4 bar and 9.0 L/min, respectively. MS spectra were acquired over the m/z range 20-1000 with a scan rate of 5 Hz. […]
Using the method previously developed, the stability of Lac-Ile and Lac-Leu in Cellvento® 4Feed-Ile/Leu was monitored in samples stored at 4° C. and RT protected from light for 3 months.

Compound: CC[C@H](C)[C@H](N)C(=O)O [Isoleucine]
- solubility at 10 min [1]: ~105 mM (≈ 13.8 mg/mL)
- solubility [2]: 32.4 g/kg
- Solubility 25° C. in g/kg (amino acid) [2]: 32.4 g/kg

Compound: CC[C@H](C)[C@H](NC(=O)C(C)O)C(=O)O (stereo partly drawn) [Lac-Ile, N-lactoyl isoleucine]
- IgG titer compared to positive control [3]: similar
- VCD compared to positive control [3]: similar
- glycosylation, high and low molecular weight species and charge variants of the IgG1 versus control condition [4]: no difference
- turbidity at maximum tested concentration ([1]; 951 mM in Cellvento 4Feed depleted in Ile/Leu): below 5 NTU
- times more soluble than the native amino acid in Cellvento 4Feed depleted in Ile/Leu [1]: at least 9 times
- solubility at 10 min [1]: ≥ 951 mM
- concentration of Ile in the spent medium [5]: decreased very rapidly until day 7 and increased again afterwards
- concentration of Leu in the spent medium [5]: moderately decreased
- effect on viable cell density (VCD) compared to positive control [5]: no effect on the peak VCD or overall VCD profile
- IgG titer compared to control [5]: slight, but not significant higher titer
- increase of free lactate (area under the curve of lactate concentration) [5]: 37%
- stability in Cellvento 4Feed-Ile/Leu [6]: stable
- increase in solubility compared to the respective amino acid [2]: 20 fold

Compound: CC(C)C[C@H](NC(=O)C(C)O)C(=O)O (stereo partly drawn) [Lac-Leu, N-lactoyl leucine]
- IgG titer compared to positive control [3]: similar
- VCD compared to positive control [3]: similar
- glycosylation, high and low molecular weight species and charge variants of the IgG1 versus control condition [4]: no difference
- times more soluble than the native amino acid in Cellvento 4Feed depleted in Ile/Leu [1]: 6.6 times
- solubility at 10 min [1]: ~600 mM (≈ 122 mg/mL)
- concentration of Ile in the spent medium [5]: decreased after day 7
- concentration of Leu in the spent medium [5]: decreased very rapidly until day 7 and increased again afterwards
- effect on viable cell density (VCD) compared to positive control [5]: positive effect on the duration of the plateau phase
- viable cell density in plateau phase ([5]; day 10 to day 14): ~15 million cells/mL
- IgG titer compared to control [5]: slight, but not significant higher titer
- increase of free lactate (area under the curve of lactate concentration) [5]: 20%
- stability in Cellvento 4Feed-Ile/Leu [6]: stable
- increase in solubility compared to the respective amino acid [2]: around 30 fold

Compound: CC(O)C(=O)NC(Cc1ccccc1)C(=O)[O-].[Na+] (stereo not drawn) [Lac-Phe sodium salt]
- Solubility 25° C. in g/kg (corresponding Lac-AA) [2]: 483.1 g/kg

Compound: CC(O)C(=O)NC(Cc1ccc(O)cc1)C(=O)[O-].[Na+] (stereo not drawn) [Lac-Tyr sodium salt]
- Solubility 25° C. in g/kg (corresponding Lac-AA) [2]: 101.9 g/kg

Continued, values first:

- maximum solubilities obtained in water [2]: 86.0 g/kg
Compound: CC(C)C[C@H](N)C(=O)[O-].[Na+] [Leu sodium salt]

- solubility at 10 min [1]: ~90 mM (≈ 11.8 mg/mL)
- solubility [2]: about 22.1 g/kg
- maximum solubilities obtained in water [2]: 22.1 g/kg
- Solubility 25° C. in g/kg (amino acid) [2]: 22.1 g/kg
Compound: CC(C)C[C@H](N)C(=O)O [Leucine]

- Solubility 25° C. in g/kg (amino acid) [2]: 52.9 g/kg
Compound: CSCC[C@H](N)C(=O)O [Methionine]

- Solubility 25° C. in g/kg (amino acid) [2]: 26.0 g/kg
Compound: N[C@@H](Cc1ccccc1)C(=O)O [Phenylalanine]

- Solubility 25° C. in g/kg (amino acid) [2]: 57.8 g/kg
Compound: CC(C)[C@H](N)C(=O)O [Valine]
